In assay [1] the test system is mouse melan-a cells. In words: Melanocyte proliferant activity of piperine derivatives, SRB assay, 4 days, 10% FBS. The assay is classed as cell-based. The following applies: for activity at 1 µM / activity at 10 µM / activity at 25 µM / activity at 50 µM / activity at 100 µM: Mus musculus, Melan-a, 96 h; for Relative activity to piperine: (A-100) compound/(A-100) piperine; for More active than piperine at higher conc. (μM)?: concentrations at which more active than piperine. On the procedure: The plates were incubated at 37° C. in a 10% CO2, 90% air humidified atmosphere for the stated length of time. At the end of the incubation, an SRB assay was performed. Briefly, cells attached to the bottom of the plate were fixed by addition of cold trichloroacetic acid (TCA, 4° C., Aldrich, Dorset, UK) on the top of the growth medium (final TCA 20% w/v). The plate was placed at 4° C. for 1 hour before being gently washed five times with tap water. It was allowed to dry in air, or aided with a hair dryer to speed up the drying process, then 50 μl of 4% w/v SRB dissolved in 1% acetic acid in water was added to each well for 30 min. At the end of the staining period, unbound SRB was removed by washing 4 times with 1% acetic acid. The plate was air dried again, and 150 μl of 10 mM aqueous Tris base (Sigma-Aldrich Co. Ltd, Irvine, UK) was added into each well to solubilize the cell-bound dye.
Various piperine derivatives of formula (1) were synthesised and tested for melanocyte (mouse melan-a) proliferant activity in-vitro. Cells we re incubated with the test compound for 4 days, as previously for the mouse cells but with 10% FBS, after which the sulphorhodamine-B (SRB) assay was performed to determnine cell number SRB uptake was measured as optical density at 550 nm. The control assay was carried out on cells incubated without test compound. There were 2 or 3 series of experiments, each of which consisted of six replcate experiments.
Percentage cell growth was obtained with a given compound calculated as (optical density in the presence of the compound/control optical density)×100.
Melan-a cell proliferant activity for tested compounds was compared with that obtained with piperine. […] All figures are given with Standard Error of the Mean.
(In general: The SRB assay estimates cell density from bound dye.)

Assay [2] has as its system melan-a cells. Put plainly: Dendricity of melan-a cells by observation under microscope. The assay is classed as cell-based, mouse. More on the design: key: +++: highly dendritic; ++: moderately dendritic; +: weakly dendritic; −: no effect. An excerpt:
Effect on dendricity of melan-a cells by the test compounds was by observation under microscope. Dendricity is relevant to vitiligo since normal skin melanocytes have dendrites, but in vitiligo the melanocytes seem to lose these before they disappear from the patches.

Setting [3] is: read-out: growth of melan-a cells as % of control, dose experiment.
[4] abbreviates: 10 μM, read-out: growth of melan-a cells as % of control, dose experiment.
The mark [5] stands for this setting: single concentration (10 μM), melan-a.
[6] abbreviates: single concentration (10 μM), melan-a, ± SEM, read-out: Percentage cell growth (Repeated experiments).

The values below come from patent US6346539B1, “Treatment of skin conditions” (BTG International Limited, priority 1998, dated 2002).

Like-named read-outs stand apart in the source and are kept apart here.

As for `O=C(/C=C/C=C/c1ccc2c(c1)OCO2)N1CCOCC1` [RV-A02, 5-E,E-piperinoyl morpholine], in assay [1] (setting [3]), the activity at 1 µM worked out at 125 ± 10%, the activity at 25 µM came to 171 ± 8% and the activity at 50 µM turned out to be 168 ± 12%. Further, in assay [1] (setting [4]), the activity at 10 µM turned out to be 167 ± 17%. Further, the “Active at 10 μM?” value in assay [1] (overall summary, melan-a) was “Yes”. Besides, the Stimulant activity entry in assay [1] (setting [5]) is “Positive”. For the same compound, the Dendricity result in assay [2] (Table 7, 10 μM) is given as “+++”.

For the compound `CCCCNC(=O)/C=C/C=C/c1ccc2c(c1)OCO2` [RV-A11, 5-E,E-piperinoylbutylamine], in assay [1] (10 μM), the “Relative activity to piperine” value worked out at 0.66. Moreover, the activity at 1 µM in assay [1] (setting [3]) was 189 ± 6%. Further, the activity at 10 µM in assay [1] (setting [4]) and in assay [1] (setting [6]) was 264 ± 21% each time. Further, in assay [1] (setting [3]), the activity at 50 µM is 158 ± 20%. Moreover, the activity at 100 µM in assay [1] (setting [3]) is 84 ± 6%. Further, the “Active at 10 μM?” value in assay [1] (overall summary, melan-a) is given as “Yes”. Moreover, in assay [1] (setting [5]), the Stimulant activity entry is given as “Positive”. Moreover, the “Dentricity, dose experiment” value in assay [2] (1 μM) is reported as “+++”; in assay [2] (10 μM), “+++”; in assay [2] (50 μM), “++”; in assay [2] (100 μM) it was “+”. The Dendricity entry in assay [2] (Table 7, 10 μM) is listed as “+++”.

`O=C(CCCCc1ccc2c(c1)OCO2)N1CCCCC1` [RV-C02, Tetrahydropiperine]: in assay [1] (setting [3]), the activity at 1 µM stood at 134 ± 15%, the activity at 25 µM turned out to be 199 ± 31% and the activity at 50 µM came out at 175 ± 12%. In addition, in assay [1] (setting [4]), the activity at 10 µM was determined as 183 ± 33%. For the same compound, in assay [1] (overall summary), the “More active than piperine at higher conc. (μM)?” value (“More active than piperine” below) is recorded as “No”. Besides, the “Active at 10 μM?” value in assay [1] (overall summary, melan-a) is reported as “Yes”. Besides, the Stimulant activity result in assay [1] (setting [5]) is “Positive”. For the same compound, the Dendricity result in assay [2] (Table 11, 10 μM) is recorded as “+++”.

Consider `CNC(=O)/C=C/C=C/c1ccc2c(c1)OCO2` [RV-A07, 5-E,E-piperinoylmethylamine], for which, in assay [1] (10 μM), the “Relative activity to piperine” value is reported as 0.6. The activity at 1 µM in assay [1] (setting [3]) turned out to be 140 ± 12%. Further, the activity at 10 µM in assay [1] (setting [4]) and in assay [1] (setting [6]) was 170 ± 24% each time. Moreover, in assay [1] (setting [3]), the activity at 50 µM worked out at 71 ± 5%. Also, the activity at 100 µM in assay [1] (setting [3]) was found to be 46 ± 2%. In addition, the “Active at higher conc. (μM)?” value in assay [1] (overall summary, concentrations at which active) was “No”. Further, in assay [1] (overall summary), the “More active than piperine” value was “No”. For the same compound, in assay [1] (overall summary, melan-a), the “Active at 10 μM?” value is “Yes”. In assay [1] (setting [5]), the Stimulant activity result is given as “Positive”. Moreover, the “Dentricity, dose experiment” value in assay [2] (1 μM) was “++”; in assay [2] (10 μM) it was “++”; in assay [2] (50 μM), “+”; in assay [2] (100 μM), “+”. Also, the Dendricity entry in assay [2] (Table 7, 10 μM) is “++”.

Consider `O=C(/C=C/C=C/c1ccc2c(c1)OCO2)N1CCCC1` [RV-A01, 5-E,E-piperinoylpyrrolidine], for which the “"cross-over" effect relative to piperine” value in assay [1] (10 μM versus 50 μM) is given as “less active than piperine at 10 μM but more active at 50 μM”. Further, in assay [1] (setting [3]), the activity at 1 µM amounted to 109 ± 7%, the activity at 25 µM came to 142 ± 21% and the activity at 50 µM stood at 186 ± 14%. In addition, the activity at 10 µM in assay [1] (setting [4]) worked out at 122 ± 7%. Besides, the activity at 10 µM in assay [1] (setting [6]) amounted to 183 ± 34%. Besides, the “Active at 10 μM?” value in assay [1] (overall summary, melan-a) is listed as “Yes”. Besides, in assay [1] (setting [5]), the Stimulant activity entry was “Positive”. Also, the Dendricity result in assay [2] (Table 7, 10 μM) was “+++”.

For `O=C(/C=C/c1ccc2c(c1)OCO2)N1CCCCC1` [RV-B01, 1-(3-trans-benzo-1,3-dioxol-5-ylacryloyl)piperidine], in assay [1] (setting [3]), the activity at 1 µM was 111 ± 6%, the activity at 25 µM was found to be 187 ± 18% and the activity at 50 µM is 187 ± 8%. The activity at 10 µM in assay [1] (setting [4]) was 147 ± 7%. The “Active at 10 μM?” value in assay [1] (overall summary, melan-a) was “Yes”. Moreover, in assay [1] (setting [5]), the Stimulant activity result is “Positive”. For the same compound, the Dendricity entry in assay [2] (Table 8, 10 μM) is “++”.

For the compound `CCCCOC(=O)/C=C/C=C/c1ccc2c(c1)OCO2` [RV-AB6, 5-E,E-piperinic Acid Butyl Ester], in assay [1] (10 μM), the “Relative activity to piperine” value was determined as 0.59. Also, in assay [1] (setting [3]), the activity at 1 µM stood at 103 ± 5%. Further, the activity at 10 µM in assay [1] (setting [4]) and in assay [1] (setting [6]) was 148 ± 18% each time. The activity at 50 µM in assay [1] (setting [3]) came to 190 ± 11%. Further, in assay [1] (setting [3]), the activity at 100 µM was 128 ± 17%. For the same compound, in assay [1] (overall summary, melan-a), the “Active at 10 μM?” value was “Yes”. Also, in assay [1] (setting [5]), the Stimulant activity entry is reported as “Positive”. Further, the “Dentricity, dose experiment” value in assay [2] (1 μM) is “−”; in assay [2] (10 μM), “+”; in assay [2] (50 μM), “++”; in assay [2] (100 μM), “+”. The Dendricity entry in assay [2] (Table 9, 10 μM) is on record as “+”.

`CCOC(=O)/C=C/C=C/c1ccc2c(c1)OCO2` [RV-AB2, 5-E,E-piperinic Acid Ethyl Ester]: the activity at 10 µM in assay [1] (setting [6]) came to 29 ± 9%. For the same compound, the “Active at 10 μM?” value in assay [1] (overall summary, melan-a) is “No^c”. The Stimulant activity entry in assay [1] (setting [5]) was “Positive”. Also, the Dendricity entry in assay [2] (Table 9, 10 μM) is reported as “Toxic”.

Take `COc1ccc(/C=C/C(=O)N2CCCCC2)cc1` [RV-G03, 1-(4-methoxy-cinnamoyl)piperidine]: in assay [1] (setting [3]), the activity at 1 µM turned out to be 90 ± 10%. In addition, the activity at 10 µM in assay [1] (setting [4]) was found to be 108 ± 20%; in assay [1] (setting [6]) it was 121 ± 8%. In addition, the activity at 50 µM in assay [1] (setting [3]) is 111 ± 10%. Further, the activity at 100 µM in assay [1] (setting [3]) stood at 133 ± 15%. In addition, the “More active than piperine” value in assay [1] (overall summary) is listed as “No”. The “Active at 10 μM?” value in assay [1] (overall summary, melan-a) is listed as “No”. Also, the Stimulant activity result in assay [1] (setting [5]) is recorded as “Non- significant”. The “Dentricity, dose experiment” value in assay [2] (1 μM), in assay [2] (10 μM), in assay [2] (50 μM) and in assay [2] (100 μM) was “−” in each case. Further, in assay [2] (Table 12, 10 μM), the Dendricity entry is recorded as “−”.

As for `CCCOC(=O)/C=C/C=C/c1ccc2c(c1)OCO2` [RV-AB5, 5-E,E-piperinic Acid Propyl Ester], in assay [1] (10 μM), the “Relative activity to piperine” value is 0.95. The activity at 1 µM in assay [1] (setting [3]) turned out to be 120 ± 21%. Besides, the activity at 10 µM in assay [1] (setting [4]) amounted to 151 ± 19%; in assay [1] (setting [6]) it was 166 ± 35%. In assay [1] (setting [3]), the activity at 50 µM came out at 163 ± 8%. In addition, the activity at 100 µM in assay [1] (setting [3]) worked out at 123 ± 8%. Also, the “Active at 10 μM?” value in assay [1] (overall summary, melan-a) is given as “Yes”. In assay [1] (setting [5]), the Stimulant activity entry is “Positive”. The “Dentricity, dose experiment” value in assay [2] (1 μM) is “−”; in assay [2] (10 μM), “++”; in assay [2] (50 μM) it was “++”; in assay [2] (100 μM), “+”. Moreover, the Dendricity result in assay [2] (Table 9, 10 μM) is on record as “++”.

As for `COc1ccc(/C=C/C(=O)N2CCCCC2)cc1OC` [RV-G04, 1-(3,4-dimethoxycinnamoyl)piperidine], the activity at 1 µM in assay [1] (setting [3]) worked out at 95 ± 11%. Further, the activity at 10 µM in assay [1] (setting [4]) and in assay [1] (setting [6]) was 100 ± 9% in each case. Also, the activity at 50 µM in assay [1] (setting [3]) is 114 ± 8%. Besides, in assay [1] (setting [3]), the activity at 100 µM is 123 ± 7%. Also, in assay [1] (overall summary), the “More active than piperine” value was “No”. Moreover, the “Active at 10 μM?” value in assay [1] (overall summary, melan-a) is reported as “No”. Further, the Stimulant activity result in assay [1] (setting [5]) was “None”. For the same compound, the “Dentricity, dose experiment” value in assay [2] (1 μM), in assay [2] (10 μM), in assay [2] (50 μM) and in assay [2] (100 μM) was “−” throughout. Also, the Dendricity entry in assay [2] (Table 12, 10 μM) is “−”.
